Read-outs that look alike come from different tables or passages of the source.
Test: Pharmacokinetics in CD-1 mice (plasma concentrations, PK parameters)
Type: in vivo
Details: CD-1, mouse, plasma; for concentration at 5 min / concentration at 0.5 h / concentration at 1 h / concentration at 2 h / concentration at 4 h / concentration at 24 h: read-out: Concentration; for AUC(0-inf): read-out: AUCInf; for AUC(0-t): read-out: AUClast; for C0: read-out: C0; for MRT inf: read-out: MRTInf_obs; for Cmax: read-out: Cmax; for Tmax: read-out: Tmax
Experimental: Pharmacokinetics for I-127, I-172 and I-210 were determined in Sprague Dawley rats or CD-1 mice by dosing intravenous (IV), subcutaneous (SC) or per oral (PO) using facility SOPs and sampling plasma at required time points. Species, formulation, route of administration and time points samples are listed below for each compound.
Compounds were extracted from plasma, injected on reverse phase HPLC, eluted with a gradient from 5% to 95% acetonitrile in water and quantified by mass spectrometry with internal standard. Data are expressed in ng compound per mL of plasma.

[1] = iv, 2 mg/kg, mouse (CD1) iv 2 mg/kg, Mean
[2] = iv, 2 mg/kg, mouse (CD1) iv 2 mg/kg, individual Mouse 1-3
[3] = po, 30 mg/kg, mouse (CD1) po 30 mg/kg, Mean
[4] = po, 30 mg/kg, mouse (CD1) po 30 mg/kg, individual Mouse 4-6
[5] = sc, 30 mg/kg, mouse (CD1) sc 30 mg/kg, Mean
[6] = sc, 30 mg/kg, mouse (CD1) sc 30 mg/kg, individual Mouse 7-9

O=C1CCC(N2C(=O)c3cccc(NCCOCCOCCNCc4ccc(-n5cc(NC(=O)c6coc(-c7ccnc(NCC8CC8)c7)n6)c(C(F)F)n5)cc4)c3C2=O)C(=O)N1 (stereo not drawn) [I-210, 2-[2-(Cyclopropylmethylamino)-4-pyridyl]-N-[3-(difluoromethyl)-1-[4-[[2-[2-[2-[[2-(2,6-dioxo-3-piperidyl)-1,3-dioxoisoindolin-4-yl]amino]ethoxy]ethoxy]ethylamino]methyl]phenyl]pyrazol-4-yl]oxazole-4-carboxamide]
concentration at 5 min [1]: 589 ng/mL | concentration at 5 min [2]: 579 ng/mL | concentration at 0.25 h [1]: 390 ng/mL | concentration at 0.25 h [2]: 364 ng/mL | concentration at 0.5 h [1]: 283 ng/mL | concentration at 0.5 h [2]: 306 ng/mL | concentration at 1 h [1]: 193 ng/mL | concentration at 1 h [2]: 220 ng/mL | concentration at 2 h [1]: 90.8 ng/mL | concentration at 2 h [2]: 89.3 ng/mL | concentration at 4 h [1]: 26.1 ng/mL | concentration at 4 h [2]: 32.5 ng/mL | concentration at 8 h [1]: 5.19 ng/mL | concentration at 8 h [2]: 5.72 ng/mL | half-life [1]: 1.49 h | AUC(0-inf) [1]: 672 ng·h/mL | AUC(0-t) [1]: 661 ng·h/mL | C0 [1]: 726 ng/mL | MRT inf [1]: 1.5 h | half-life [2]: 1.52 h | AUC(0-inf) [2]: 714 ng·h/mL | AUC(0-t) [2]: 701 ng·h/mL | C0 [2]: 730 ng/mL | MRT inf [2]: 1.58 h | concentration at 0.25 h [3]: 30.8 ng/mL | concentration at 0.5 h [3]: 55 ng/mL | concentration at 1 h [3]: 72 ng/mL | concentration at 2 h [3]: 127 ng/mL | concentration at 2 h [4]: 177 ng/mL | concentration at 4 h [3]: 120 ng/mL | concentration at 4 h [4]: 92.5 ng/mL | concentration at 8 h [3]: 22.8 ng/mL | half-life [3]: 2.27 h | AUC(0-inf) [3]: 753 ng·h/mL | AUC(0-t) [3]: 676 ng·h/mL | Cmax [3]: 148 ng/mL | MRT inf [3]: 4.14 h | Tmax [3]: 3.33 h | half-life [4]: 2.59 h | AUC(0-inf) [4]: 917 ng·h/mL | AUC(0-t) [4]: 786 ng·h/mL | Cmax [4]: 177 ng/mL | MRT inf [4]: 4.22 h | Tmax [4]: 2 h | concentration at 0.25 h [5]: 79.3 ng/mL | concentration at 0.25 h [6]: 74.8 ng/mL | concentration at 0.5 h [5]: 85 ng/mL | concentration at 0.5 h [6]: 88.8 ng/mL | concentration at 1 h [5]: 97 ng/mL | concentration at 1 h [6]: 107 ng/mL | concentration at 2 h [5]: 95 ng/mL | concentration at 2 h [6]: 90 ng/mL | concentration at 4 h [5]: 98 ng/mL | concentration at 4 h [6]: 95.9 ng/mL | concentration at 8 h [5]: 43.5 ng/mL | concentration at 8 h [6]: 39.6 ng/mL | concentration at 24 h [5]: 2.85 ng/mL | concentration at 24 h [6]: 3.62 ng/mL | half-life [5]: 3.96 h | AUC(0-inf) [5]: 1040 ng·h/mL | AUC(0-t) [5]: 1020 ng·h/mL | Cmax [5]: 109 ng/mL | MRT inf [5]: 5.87 h
